Reference: patent US4746349A, “Method and compositions for suppressing the nitrification of ammonium in plant growth medium” (American Cyanamid Company, priority 1986, dated 1988)
Structures can show the parent of a compound that is named as a salt.

How the values were obtained:
Nitrosomonas spp. = experiment: Nitrification of ammonium in soil incubated at 25° C. (ammonium recovery, nitrate accumulation); conditions: soil 25° C.; for Concentration of nitrate nitrogen / Recovery of Ammonium Nitrogen: 200 ppm N
Method: In these evaluations, one hundred grams (100 g) of oven dry, silt loam field soil with low residual nitrogen is added to a 6×12 cm screw-capped glass jar for each sampling date to provide an optimum environment for nitrification.
Two replicates of each treatment-sampling date are established. The soil is adjusted to 50% water saturation with an aqueous solution of ammonium sulfate at 200 ppm N and the chemical to be tested as a nitrification inhibitor at rates of from 0.10 to 0.50 ppm.
Incubation is at either 25° C. or 38° C. for 0, 1, 2, 4, 7, 9, 12, 16 or 20 weeks. Inorganic N is extracted by adding 2M KCl (10:1 v/w) and shaking for one hour, allowing settling for fifteen minutes. A 10 ml aliquot from the supernatant is assayed for ammonium, nitrite and nitrate by standard steam distillation methods (AOAC, pp. 653-655). Nitrapyrin (0.5 ppm) is used as a nitrification inhibitor for comparison. Benzyl alcohol, acetone, and a non-N amended soil are run as controls and as a check on mineralization.
Nitrification: Ammonium recovery and nitrate accumulation are indicative of nitrification, and data obtained with test compounds are reported in Tables I and II.

Nitrobacter spp. = experiment: Nitrite nitrogen in ammonium amended soil incubated at 25° C.; conditions: soil 25° C., 200 ppm N
Method: Determination of nitrite nitrogen and nitrate nitrogen in soil prepared in Example 1 above, which is amended with 200 ppm of nitrogen as aqueous ammonium sulfate, […], is determined using the nitrite and nitrate analysis of the American Organization of Analytical Chemists (AOAC pp. 653-655).

CC[C@@]1([C@@H]2O[C@@H]([C@H]3O[C@@](O)(CO)[C@H](C)C[C@@H]3C)C[C@@H]2C)CC[C@H]([C@]2(C)CC[C@]3(C[C@H](O)[C@@H](C)[C@@H]([C@@H](C)[C@@H](OC)[C@H](C)C(=O)O)O3)O2)O1 [Monensin sodium salt, Monensin]
Concentration of nitrate nitrogen (Nitrosomonas spp.; 0.10 ppm, week 0): 18 PPM
Concentration of nitrate nitrogen (Nitrosomonas spp.; 0.10 ppm, week 1): 17 PPM
Recovery of Ammonium Nitrogen (Nitrosomonas spp.; 0.10 ppm, week 1): 175 PPM
Concentration of nitrate nitrogen (Nitrosomonas spp.; 0.10 ppm, week 2): 17 PPM
Recovery of Ammonium Nitrogen (Nitrosomonas spp.; 0.10 ppm, week 2): 175 PPM
Concentration of nitrate nitrogen (Nitrosomonas spp.; 0.10 ppm, week 4): 45 PPM
Recovery of Ammonium Nitrogen (Nitrosomonas spp.; 0.10 ppm, week 4): 155 PPM
Concentration of nitrate nitrogen (Nitrosomonas spp.; 0.10 ppm, week 7): 199 PPM
Recovery of Ammonium Nitrogen (Nitrosomonas spp.; 0.10 ppm, week 7): 17 PPM
Concentration of nitrate nitrogen (Nitrosomonas spp.; 0.10 ppm, week 9): 220 PPM
Recovery of Ammonium Nitrogen (Nitrosomonas spp.; 0.10 ppm, week 9): 3 PPM
Concentration of nitrate nitrogen (Nitrosomonas spp.; 0.10 ppm, week 12): 206 PPM
Recovery of Ammonium Nitrogen (Nitrosomonas spp.; 0.10 ppm, week 12): 2 PPM
Concentration of nitrate nitrogen (Nitrosomonas spp.; 0.10 ppm, week 16): 213 PPM
Recovery of Ammonium Nitrogen (Nitrosomonas spp.; 0.10 ppm, week 16): 5 PPM
Specific inhibition of nitrification through activity against Nitrosomonas spp., in words (Nitrosomonas spp.; 0.1 to 0.5 ppm): appear to specifically inhibit nitrification through activity against Nitrosomonas spp.
Concentration of nitrate nitrogen (Nitrosomonas spp.; 0.25 ppm, week 0): 19 PPM
Concentration of nitrate nitrogen (Nitrosomonas spp.; 0.25 ppm, week 1): 22 PPM
Recovery of Ammonium Nitrogen (Nitrosomonas spp.; 0.25 ppm, week 1): 179 PPM
Concentration of nitrate nitrogen (Nitrosomonas spp.; 0.25 ppm, week 2): 21 PPM
Concentration of nitrate nitrogen (Nitrosomonas spp.; 0.25 ppm, week 4): 23 PPM
Concentration of nitrate nitrogen (Nitrosomonas spp.; 0.25 ppm, week 7): 28 PPM
Concentration of nitrate nitrogen (Nitrosomonas spp.; 0.25 ppm, week 9): 54 PPM
Recovery of Ammonium Nitrogen (Nitrosomonas spp.; 0.25 ppm, week 9): 157 PPM
Concentration of nitrate nitrogen (Nitrosomonas spp.; 0.25 ppm, week 12): 70 PPM
Recovery of Ammonium Nitrogen (Nitrosomonas spp.; 0.25 ppm, week 12): 124 PPM
Concentration of nitrate nitrogen (Nitrosomonas spp.; 0.25 ppm, week 16): 158 PPM
Recovery of Ammonium Nitrogen (Nitrosomonas spp.; 0.25 ppm, week 16): 74 PPM
Concentration of nitrate nitrogen (Nitrosomonas spp.; 0.25 ppm, week 20): 121 PPM
Recovery of Ammonium Nitrogen (Nitrosomonas spp.; 0.25 ppm, week 20): 21 PPM
Concentration of nitrate nitrogen (Nitrosomonas spp.; 0.50 ppm, week 0): 18 PPM
Concentration of nitrate nitrogen (Nitrosomonas spp.; 0.50 ppm, week 1): 18 PPM
Recovery of Ammonium Nitrogen (Nitrosomonas spp.; 0.50 ppm, week 1): 176 PPM
Concentration of nitrate nitrogen (Nitrosomonas spp.; 0.50 ppm, week 2): 21 PPM
Concentration of nitrate nitrogen (Nitrosomonas spp.; 0.50 ppm, week 4): 22 PPM
Concentration of nitrate nitrogen (Nitrosomonas spp.; 0.50 ppm, week 7): 23 PPM
Concentration of nitrate nitrogen (Nitrosomonas spp.; 0.50 ppm, week 9): 19 PPM
Concentration of nitrate nitrogen (Nitrosomonas spp.; 0.50 ppm, week 12): 22 PPM
Concentration of nitrate nitrogen (Nitrosomonas spp.; 0.50 ppm, week 16): 121 PPM
Recovery of Ammonium Nitrogen (Nitrosomonas spp.; 0.50 ppm, week 16): 110 PPM
Concentration of nitrate nitrogen (Nitrosomonas spp.; 0.50 ppm, week 20): 72 PPM
Recovery of Ammonium Nitrogen (Nitrosomonas spp.; 0.50 ppm, week 20): 143 PPM
Concentration of nitrite nitrogen (Nitrobacter spp.; 0.10 ppm, week 0): 9 ppm
Concentration of nitrite nitrogen (Nitrobacter spp.; 0.10 ppm, week 1): -4 ppm
Concentration of nitrite nitrogen (Nitrobacter spp.; 0.10 ppm, week 2): 4 ppm
Concentration of nitrite nitrogen (Nitrobacter spp.; 0.10 ppm, week 4): 11 ppm
Concentration of nitrite nitrogen (Nitrobacter spp.; 0.10 ppm, week 7): 7 ppm
Concentration of nitrite nitrogen (Nitrobacter spp.; 0.10 ppm, week 9): 16 ppm
Concentration of nitrite nitrogen (Nitrobacter spp.; 0.10 ppm, week 12): 18 ppm
Concentration of nitrite nitrogen (Nitrobacter spp.; 0.10 ppm, week 16): 7 ppm
Concentration of nitrite nitrogen (Nitrobacter spp.; 0.10 ppm, week 20): 11 ppm
Concentration of nitrite nitrogen (Nitrobacter spp.; 0.25 ppm, week 0): 6 ppm
Concentration of nitrite nitrogen (Nitrobacter spp.; 0.25 ppm, week 1): 3 ppm
Concentration of nitrite nitrogen (Nitrobacter spp.; 0.25 ppm, week 2): 6 ppm
Concentration of nitrite nitrogen (Nitrobacter spp.; 0.25 ppm, week 4): 7 ppm
Concentration of nitrite nitrogen (Nitrobacter spp.; 0.25 ppm, week 7): -4 ppm
Concentration of nitrite nitrogen (Nitrobacter spp.; 0.25 ppm, week 9): 17 ppm
Concentration of nitrite nitrogen (Nitrobacter spp.; 0.25 ppm, week 12): 30 ppm
Concentration of nitrite nitrogen (Nitrobacter spp.; 0.25 ppm, week 16): 3 ppm
Concentration of nitrite nitrogen (Nitrobacter spp.; 0.25 ppm, week 20): 90 ppm
Concentration of nitrite nitrogen (Nitrobacter spp.; 0.50 ppm, week 0): 6 ppm
Concentration of nitrite nitrogen (Nitrobacter spp.; 0.50 ppm, week 1): 5 ppm
Concentration of nitrite nitrogen (Nitrobacter spp.; 0.50 ppm, week 2): 6 ppm
Concentration of nitrite nitrogen (Nitrobacter spp.; 0.50 ppm, week 4): 0 ppm
Concentration of nitrite nitrogen (Nitrobacter spp.; 0.50 ppm, week 7): 2 ppm
Concentration of nitrite nitrogen (Nitrobacter spp.; 0.50 ppm, week 9): -7 ppm
Concentration of nitrite nitrogen (Nitrobacter spp.; 0.50 ppm, week 12): 4 ppm
Concentration of nitrite nitrogen (Nitrobacter spp.; 0.50 ppm, week 16): 2 ppm
Concentration of nitrite nitrogen (Nitrobacter spp.; 0.50 ppm, week 20): 22 ppm
